Laboratory results: patent US3931299A, “9β-Formyl prostaglandin derivatives” (American Home Products Corporation, priority 1974, dated 1976)

Legend:
[1] = hypotension in the anesthetized dog by the intravenous route; assay type: in vivo
Experimental: In the use of the compounds of the invention to produce hypotensive effects in warm-blooded animals, administration by the injectable route is preferred, preferably the intravenous route.
Thus in the anesthetized dog by the intravenous route the dose to produce hypotension is from about 1 μg/kg. to about 200 μg/kg. and preferably from about 10 μg/kg. to about 100 μg/kg.
Using this procedure the following results were obtained.

[2] = test system: bronchoconstricting effects of a standard dose of acetylcholine; experiment: bronchodilation in the guinea pig by aerosol inhalation (method of Rosenthale et al.); assay type: in vivo
Text: In using the compounds of the invention to produce bronchodilating effects in warm-blooded animals, they may be administered in a variety of dosage forms: oral, injectable, and aerosol inhalation. Aerosol inhalation is a preferred method because of its rapid onset of action, great potency, and specificity of action. The particular dosage to obtain the bronchodilating effect will vary with the particular compound employed, the particular animal involved, and the degree of bronchodilation desired. In the guinea pig, by aerosol inhalation, the dose to produce bronchodilation is from about 0.15 micrograms to about 100 micrograms, and preferably from about 0.15 to about 50 micrograms. The bronchodilation produced upon aerosol inhalation can be observed by the method of Rosenthale et al., J. Pharmacol. Exp. Ther., 178, 541 (1971).
Using this procedure, the following results were obtained.

Row | SMILES | Δb.p. ([1]; dose 100 μg/kg.) | Percent inhibition of the bronchoconstricting effects of a standard dose of acetylcholine ([2]; dose 0.15 μg) | Percent inhibition of the bronchoconstricting effects of a standard dose of acetylcholine ([2]; dose 1.5 μg) | Δb.p. ([1]; dose 10 μg/kg.)
1 | C=C1CC[C@H](/C=C/[C@@H](O)CCCCC)[C@H]1CCCCCCC(=O)O [2β-[(3S)-3-Hydroxy-Trans-1-Octenyl]-5-Methylene-1α-Cyclopentaneheptanoic Acid] | -32 mm. Hg |  |  | 
2 | CCCCC[C@H](O)/C=C/[C@H]1CC[C@@H](C=O)[C@@H]1CCCCCCC(=O)O [5β-Formyl-2β-[(3S)-3-Hydroxy-Trans-1-Octenyl]-1α-Cyclopentane Heptanoic Acid] | -27 mm. Hg | 36% |  | 
3 | C=C1CC[C@H](/C=C/[C@@H](O)CCCCC)[C@H]1C/C=C\CCCC(=O)O [7-[2β-((3S)-3-Hydroxy-Trans-1-Octenyl)-5-Methylene-1α-Cyclopentyl]-Cis-5-Heptenoic Acid] |  |  | 46% | 
4 | CCCCC[C@H](O)/C=C/[C@H]1CC[C@@H](C=O)[C@@H]1C/C=C\CCCC(=O)O [7-[5β-Formyl-2β-((3S)-3-Hydroxy-Trans-1-Octenyl)-1α-Cyclopentyl]-Cis-5-Heptenoic Acid] |  |  | 55% | -17 mm. Hg
5 | CCCCC[C@H](O)/C=C/[C@H]1CC[C@@H](CO)[C@@H]1C/C=C\CCCC(=O)O [7-[5β-Hydroxymethyl-2β-((3S)-3-Hydroxy-Trans-1-Octenyl)-1α-Cyclopentyl]-Cis-5-Heptenoic Acid] | -27 mm. Hg |  |  | 
